Assay results taken from patent publication US20040258754A1, “Compositions for oral administration of camptothecin and its analogs” (priority 2003, published 2004).
≈ marks a conversion by molar mass, not a printed value. Where two headings read alike, the source gives them in different places.

What was measured:
[1] = Partitioning of topotecan into Pluronic F127 micelles (fluorescence); assay type: physicochemical; conditions: Pluronic F127 micelles vs aqueous phase, carrier 0.003% to 10%, topotecan 0.010 mM, 2 hrs at 37° C.
Description: Partitioning coefficient P describes the tendency of molecules of topotecan to stay inside micelles formed by the carrier: P=[x]m/[x]w, where [x]m is the actual concentration of topotecan inside micelles, [x]w is the actual concentration of topotecan in aqueous phase. The carrier investigated in this example is pluronic F127 (BASF). Partitioning coefficient was estimated using the fluorescence dependence on the concentration of the carrier (Kabanov A. et al. (1995), Macromolecules 28, 2303-2314), by fitting the measured fluorescence of topotecan to the equation:
(Imax−I0)/(−I0)−1=1/(θP)−1/P
θ=0.01v([carrier]−CMCcarrier), volume portion of the micellar phase
CMCcarrier=0.02%—critical micelle concentration for Pluronic 127
v—partial specific volume of micelles, approximately v=0.8
[…]. The plate was dried in vacuum. Solutions of the carrier were applied to wells, 300 microliter to each well. The concentration of carrier in solutions varied from 0.003% to 10%. The final concentration of topotecan was 0.010 mM. The plate was incubated 2 hrs at 37° C., and the fluorescence of the solution (excitation 360 nm, emission 530 nm) was measured using plate reader FL600 (BioTek).

[2] = Plasma pharmacokinetics of topotecan upon i.v. administration; assay type: in vivo; conditions: normal rats, dose of 15 mg/mL
Protocol: About 28 mg of topotecan were weighed and dissolved in 7 mL of isotonic solution. Topotecan was i.v. administered in normal rats at a dose of […].
(§1) After various time intervals (15, 30 min, 1, 3, 6, and 10 hrs) post-injection, the blood samples were collected.
The blood samples were collected from the jugular vein with the tube heparinized and kept immediately in ice for 5 to 10 min. Blood was immediately centrifuged, and plasma was separated. The plasma samples were immediately frozen in dry ice and stored at −80° C. until further use.
The aliquots (100 μL) of plasma samples were extracted with 400 μL of cold methanol. The supernatant was separated by centrifugation at 10000 RPM for 10 minutes and kept at −80° C. before HPLC analysis. The HPLC conditions were the following:
(§2) C18 reversed phase column 250×4.6 mm, Phenomenex C18 (2) Luna, 5 μm, column temperature 40° C., flow rate 1 mL/min, injection volume 20 μL, fluorescence detection at wavelengths λexcitation=381 nm, λemission=525 nm, mobile phase 94% of 2% triethylamine acetate pH 5.5/6% acetonitrile, run time 7 min
The topotecan lactone and topotecan carboxilate concentrations were calculated from the area under the peak (AUP) by using a calibration curve. The areas under the curves (AUC) were calculated by trapezoidal rule.

[3] = Solubility of topotecan in formulations with Pluronic P85; assay type: physicochemical; conditions: thermodynamic from solid, read-out: Topotecan concentration (solubility)
Protocol: Calibration. Fluorescence of 0.300 mL samples of topotecan solutions in methanol containing between 0.00006 and 0.001 mg/mL, in triplicates on Helma Quarz plate, was measured using Bio-Tek FL600 fluorescence plate reader with excitation filter wavelength/bandwidth 360/40 nm and emission filter 530/25 nm, sensitivity 70. The average fluorescence was fitted to a linear equation and gave:
where C=topotecan concentration [mg/mL].
Solubility. 1 mg topotecan samples, in triplicates, and 1 mL of the respective buffer or carrier solution, were incubated at room temperature with shaking for 1 hour. The samples were then filtered through Acrodisc CR, PTFE Syringe filter, 4 mm diameter, 0.45 μm pore size Gelman part No. 4472. The filtrate was diluted 100 times with methanol, and the final concentration of topotecan was determined by fluorescence measurement using the above-described calibration.

[4] = Oral administration of topotecan in capsules (control, microgel, microgel + L92); assay type: in vivo, rats
Protocol: (§3) About 30 mg of topotecan were weighed and mixed with 100 mg of the microgel. The mixture was dissolved in 5 mL of 70% ethanol and incubated for 16 hours at room temperature. Then, the half volume of solvent was evaporated in a stream of nitrogen. About 10 mL of 3% acetic acid were added to the mixture. The final mixture was lyophilized until dryness and loaded into the gelatin capsules.
About 30 mg of topotecan were weighed and loaded in gelatin capsules (3.75 mg/capsule).
The control and formulated topotecan in capsules were orally administered in normal rats at the dose of 15 mg/kg. The blood sample collection, extraction and HPLC analysis were the same as described in example 8.
as §3, with “microgel EGDMA and 30 mg of L92.” for “the microgel.”, “capsules. The topotecan formulation in capsules was orally administered in normal rats at the dose of 15 mg/kg. The blood sample collection, the extraction and HPLC analysis procedures were the same as in example 8.” for “capsules.”

[5] = Stability of topotecan lactone in Pluronic P85 formulation (HPLC); assay type: physicochemical; conditions: 37° C., 0.3 mg/mL drug in PBS
Protocol: The formulation was prepared by mixing the stock solution containing 6 mg/mL of topotecan in 0.1% aqueous acetic acid with the 2.05% P85 solutions in PBS 1:20 (v/v), to obtain final compositions containing 0.3 mg/mL drug in 1% P85. The control formulation was prepared by simple dilution of topotecan stock solution with PBS 1:20 (v/v). The initial time of incubation (O hour) is the time of mixing of the respective stock solutions. The samples were incubated at 37° C. in thermostat. After various time intervals (1, 2, 3, 6, and 10 hrs) […], a sample of formulation was taken, diluted 1000 times with the HPLC mobile phase, and injected into HPLC. The HPLC conditions were following:
as §2

[6] = Oral bioavailability of Pluronic P85 formulated and unformulated topotecan (gavage); assay type: in vivo; conditions: normal rats, oral gavage of solution, 15 mg/kg, plasma
Protocol: About 15 mg of topotecan were weighed and dissolved in 5 mL of tap water for control, and about 15 mg of topotecan were dissolved in 5 mL of 1% P85 solution in tap water for formulation;
Both topotecan dosing solutions were orally administered by gavage in normal rats at a dose of 15 mg/kg. Three animals were used per each group.
as §1
The rats were anesthetized by general inhalation of Isoflurane (Bimeta-MTC, Animal Health Inc. Cambridge, ON, Canada).
The plasma sample collection, extraction and HPLC analysis were carried out with the same matter as is described in example 8.
The topotecan lactone and topotecan carboxylate concentrations were calculated from the area under the peak (AUP) by using a calibration curve. The areas under the curves (AUC) were calculated by trapezoidal rule.

[7] = normal rats, oral gelatin capsules, 15 mg/kg, plasma

partitioning coefficient P=[x]m/[x]w [1]: about 1
Ratio AUC0-10 h Lac/Car [2]: 0.3
Ratio Cmax Lac/Car [2]: 0.4
AUC(0-t) ([2]; rat, iv, read-out: AUC0-10 h, topotecan Lactone): 454 ng·h/mL
Cmax ([2]; rat, iv, read-out: Cmax, topotecan Lactone): 321 ng/mL
solubility at 1 h ([3]; 1% Pluronic P85 in PBS, aqueous with cosolvent or surfactant or cyclodextrin, P85 1% in PBS pH 7.2, room temperature): 95 ± 5 µg/mL (≈ 225 µM)
solubility at 1 h ([3]; 3% Pluronic P85 in PBS, aqueous with cosolvent or surfactant or cyclodextrin, P85 3% in PBS pH 7.2, room temperature): 105 ± 5 µg/mL (≈ 249 µM)
solubility at 1 h ([3]; aqueous buffer, PBS pH 7.2, room temperature): 62 ± 5 µg/mL (≈ 147 µM)
AUC Ratio Oral Vs I.V. ([4]; Lac/Car AUC ratio, oral capsules 15 mg/kg vs i.v., rats): 2.0
Cmax Ratio Oral Vs I.V. ([4]; Lac/Car Cmax ratio, oral capsules 15 mg/kg vs i.v., rats): 2.0
Ratio AUC0-10 h Lac/Car [4, 7]: 0.6
Ratio Cmax Lac/Car [4, 7]: 0.8
AUC(0-t) ([4]; rat, normal rats, oral gelatin capsules, 15 mg/kg, plasma, read-out: AUC0-10 h, topotecan Lactone): 52.8 ng·h/mL
Cmax ([4]; rat, normal rats, oral gelatin capsules, 15 mg/kg, plasma, read-out: Cmax, topotecan Lactone): 9.8 ng/mL
topotecan lactone stability ([5]; 0 hour): 100.0 % of 0 h
topotecan lactone stability ([5]; 1 hour): 76.0 % of 0 h
topotecan lactone stability ([5]; 2 hours): 56.4 % of 0 h
topotecan lactone stability ([5]; 3 hours): 49.7 % of 0 h
topotecan lactone stability ([5]; 6 hours): 45.9 % of 0 h
topotecan lactone stability ([5]; 10 hours): 44.8 % of 0 h
Ratio AUC0-10 h Lac/Car [6]: 1.2
Ratio Cmax Lac/Car [6]: 1.2
AUC(0-t) ([6]; rat, read-out: AUC0-10 h, topotecan Lactone): 80.5 ng·h/mL
Cmax ([6]; rat, read-out: Cmax, topotecan Lactone): 20.3 ng/mL
SMILES: CC[C@@]1(O)C(=O)OCc2c1cc1n(c2=O)Cc2cc3c(CN(C)C)c(O)ccc3nc2-1 [Topotecan, topotecan]
